Values after ≈ are worked out from the molar mass of the structure shown. Where a name gives a salt, the structure may show the parent alone.
Test: physchem
From the text: The active agent may be any active agent suitable to treat the desired condition. […] Examples include, but are not limited to, acetazolamide, dorzolamide HCl, timolol maleate, and ethacrynic acid sodium salt.

| solubility class | solubility (aqueous buffer) [µg/mL] | Molecule | also measured |
| --- | --- | --- | --- |
|  |  | Brc1c(NC2=NCCN2)ccc2nccnc12 [brimonidine free base] | solubility: 360 µg/mL (≈ 1230 µM) |
| low solubility | < 300 | C[C@@H]1C[C@H]2[C@@H]3CCC4=CC(=O)C=C[C@]4(C)[C@@]3(F)[C@@H](O)C[C@]2(C)[C@@]1(O)C(=O)CO [dexamethasone] |  |
| high solubility |  | C[C@@H]1C[C@H]2[C@@H]3CCC4=CC(=O)C=C[C@]4(C)[C@@]3(F)[C@@H](O)C[C@]2(C)[C@@]1(O)C(=O)COP(=O)(O)O [dexamethasone sodium phosphate] |  |
| moderate solubility |  | O=C(O)CCCCCC[C@@H]1[C@@H](CC[C@@H](O)c2cc3ccccc3s2)[C@H](O)C[C@@H]1O [AR-102 free acid, 7-((1R,2R,3R,5S)-2-((R)-3-(benzo[b]thiophen-2-yl)-3-hydroxypropyl)-3,5-dihydroxycyclopentyl)heptanoic acid] |  |
| low solubility |  | CCNC(=O)CCC/C=C\C[C@@H]1[C@@H](/C=C/[C@@H](O)CCc2ccccc2)[C@H](O)C[C@@H]1O [bimatoprost] |  |
|  | < 300 | CC[C@H](C)C(=O)O[C@H]1C[C@@H](C)C=C2C=C[C@H](C)[C@H](CC[C@@H]3C[C@@H](O)CC(=O)O3)[C@H]21 [lovastatin] |  |
|  |  | brimonidine tartrate | solubility (in water at pH 7.7): 600 µg/mL |
|  |  | O=C(O)CCC/C=C\C[C@@H]1[C@@H](CC[C@@H](O)CCc2ccccc2)[C@H](O)C[C@@H]1O [latanoprost free acid] | solubility: 800 µg/mL (≈ 2050 µM) |
| high solubility | > 1000 | CCN[C@H]1C[C@H](C)S(=O)(=O)c2sc(S(N)(=O)=O)cc21 [dorzolamide HCl] |  |
| high solubility | > 1000 | CC(C)(C)NC[C@H](O)COc1nsnc1N1CCOCC1 [timolol maleate] |  |
| high solubility | > 1000 | C=C(CC)C(=O)c1ccc(OCC(=O)O)c(Cl)c1Cl [ethacrynic acid sodium salt] |  |
|  | > 1000 | CC(=O)Nc1nnc(S(N)(=O)=O)s1 [acetazolamide] |  |

Reference: patent US20100158980A1, “DRUG DELIVERY DEVICES FOR DELIVERY OF THERAPEUTIC AGENTS” (priority 2008, published 2010)
